Experimental data published in BindingDB's records for doi:10.1016/s0960-894x(02)00329-3 (Sankyo, 2002).

Biological target: Neuraminidase (Influenza A virus (strain A/Puerto Rico/8/1934 H1N1), UniProt P03468)
Experiment: Inhibition of influenza A sialidase in vitro.

Chain of Neuraminidase (P03468 whole entry): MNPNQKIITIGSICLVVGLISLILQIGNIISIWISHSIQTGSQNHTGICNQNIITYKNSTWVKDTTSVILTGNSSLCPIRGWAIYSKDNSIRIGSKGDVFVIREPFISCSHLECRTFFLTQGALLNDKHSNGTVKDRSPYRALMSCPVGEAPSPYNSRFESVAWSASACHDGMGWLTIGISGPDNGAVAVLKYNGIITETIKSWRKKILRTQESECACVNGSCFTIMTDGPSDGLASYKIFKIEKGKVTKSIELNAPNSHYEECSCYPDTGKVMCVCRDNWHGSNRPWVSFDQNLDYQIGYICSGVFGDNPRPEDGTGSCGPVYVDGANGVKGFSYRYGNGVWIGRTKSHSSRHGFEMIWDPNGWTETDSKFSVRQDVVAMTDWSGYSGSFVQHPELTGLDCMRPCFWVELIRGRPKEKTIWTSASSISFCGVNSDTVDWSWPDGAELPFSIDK

Structure (SMILES)	IC50 [nM]
[C]C(=O)[N][C][C]O[C@@H]([C@@H]1OC(C([O])=O)=[C][C@H](N=C([N])[N])[C@H]1[N]C([C])=O)[C@H]([O])[C][O]	18.4
[C][C][C][C][C]O[C@H]([C][C])[C@@H]1OC(C([O])=O)=[C][C@H](N=C([N])[N])[C@H]1[N]C([C])=O	18.8
